{
  "source": "patent US20230158057A1",
  "about": "“COMPOSITIONS AND METHODS FOR THE TREATMENT OF PAIN” (Duke University, priority 2020, published 2023)",
  "format_in_all_cases": "in vivo, mouse",
  "key": {"IFN-β": {"system": "IFN-β", "assay": "IFN-β ELISA in serum and bone marrow lysate after i.p. STING agonist, LLC model", "settings": "for serum IFN-β levels: 4 h after i.p. 20 mg/kg; for IFN-β in bone marrow (BM) lysate: 4 h after i.p., d3", "protocol": "ELISA. Mouse high-sensitivity IFN-α ELISA kit (42115-1) and IFN-β ELISA kit (42410-1) were purchased from PBL Assay Science. Mouse CTX-I ELISA kit (AC-06F1) and mouse PINP ELISA kit (AC-33F1) were purchased from Immunodiagnostic Systems. ELISA was performed using culture medium, serum, and bone marrow lysates. Serum was obtained from whole blood that was collected from a submandibular vein via facial vein puncture, coagulated for 30 minutes at room temperature, followed by centrifugation (2,000 ×g for 10 min, 4° C.) and collection of the supernatant (serum). Bone marrow was homogenized in a lysis buffer containing protease inhibitors at 4° C. for 30 minutes. ELISA was conducted in accordance with the manufacturer's instructions. A standard curve was performed for each experiment."}, "mice with CIPN or BCP": {"system": "mice with CIPN or BCP", "assay": "Conditioned place preference (CPP) assay in chronic pain (CIPN and BCP) models", "settings": "for conditioned place preference (ongoing pain): mice with CIPN or BCP, i.t.; for conditioned place preference, single pairing: mice with neuropathic pain (CIPN), i.t. 35 nmol", "protocol": "All mice underwent 3 d of preconditioning habituation in a temperature- and humidity-controlled room under low-light conditions between 08:00-16:00 in a two compartment CPP chamber (Med Associates Inc.). The two compartments differed by both visual and tactile cues. On the 4th day, animal behavior was video-recorded using a webcam connected to a laptop computer, and animal movement was automatically tracked for 15 minutes using the ANY-Maze software (Stoelting). […] On the conditioning day(s) (day 5 for single trial; day 5-7 for repeated trials), two pairing sessions were performed, with vehicle pairing in the AM session and drug treatment (e.g., vehicle or drug) in the PM session, separated by 4 h. In the AM session, mice always received vehicle (10 μl saline, delivered via i.t. injection under isoflurane anesthesia) and were immediately placed in their preferred CPP chamber for 2 h. […] 24 h after the completion of the pairing experiments, mice were placed in the CPP test box with access to both chambers and behavior was recorded for 15 minutes and analyzed using the ANY-Maze software for chamber preference. CPP score was calculated as the inverse of the time spent in the preferred chamber according to: [post-preference (sec)—pre-preference (sec)]. Vehicle served as a negative control for these experiments, while morphine (three trials/naïve mice) or clonidine (single trial/ongoing pain) served as positive controls."}, "mice with CIPN": {"system": "mice with CIPN", "assay": "Chemotherapy-induced peripheral neuropathy (CIPN) model established with paclitaxel", "settings": "i.p., 24 h after the 2nd injection", "protocol": "Mouse pain models: The chemotherapy-induced peripheral neuropathy (CIPN) model of chronic neuropathic pain was established as we have done previously, using 8-10-week-old CD-1 (strain #022, Charles River) mice injected with paclitaxel (2 mg/kg i.p.) every other day, with 4 injections total. The chronic constriction injury (CCI) model of neuropathic pain was also produced using 8-10-week-old CD-1 under isoflurane anesthesia. Briefly, the right sciatic nerve was exposed above the hip and two ligatures (7-0 Prolene) were placed around the nerve 1 mm apart located proximal to the trifurcation. Ligatures were loosely tied until a subtle flick of the ipsilateral hind limb was observed. CD-1 mice were also used to establish the SNI model, which was generated by tightly ligating the tibial and common peroneal nerves followed by transection and removal of a ˜3 mm portion of the nerve. […] All mice were housed and monitored in accordance with AAALAC standards and Duke IACUC guidelines that pertained to each model.\nReflexive-based sensory testing in mice: All behavioral testing in mice was performed in a specialized humidity- and light-controlled mouse behavior facility maintained at 21-24° C., with testing conducted between the hours of 8:00-16:00. […] We determined the 50% paw withdrawal threshold using the up-down method. […]"}, "[1]": {"system": "mice with LLC bone cancer pain (BCP)", "assay": "Syngeneic bone cancer pain (BCP) model, i.t. treatment", "protocol": "Mouse pain models: The chemotherapy-induced peripheral neuropathy (CIPN) model of chronic neuropathic pain was established as we have done previously, using 8-10-week-old CD-1 (strain #022, Charles River) mice injected with paclitaxel (2 mg/kg i.p.) every other day, with 4 injections total. The chronic constriction injury (CCI) model of neuropathic pain was also produced using 8-10-week-old CD-1 under isoflurane anesthesia. Briefly, the right sciatic nerve was exposed above the hip and two ligatures (7-0 Prolene) were placed around the nerve 1 mm apart located proximal to the trifurcation. Ligatures were loosely tied until a subtle flick of the ipsilateral hind limb was observed. CD-1 mice were also used to establish the SNI model, which was generated by tightly ligating the tibial and common peroneal nerves followed by transection and removal of a ˜3 mm portion of the nerve. The sural nerve was left intact and contact or stretching of this nerve was avoided . To establish the syngeneic bone cancer pain (BCP) model, 8-10-week-old C57BL/6J mice (strain #000664, Jackson Labs) were utilized, as the Lewis lung carcinoma cell line LLC1 (LL/2; ATCC CRL-1642) was originally generated in C57BL/6J mice. Mice were anesthetized with isoflurane and the left leg was shaved, disinfected with 10% povidone-iodine, and a 1 cm superficial incision was made to expose the patellar ligament. A 25-gauge needle was inserted at the intercondylar notch of the left femur into the femoral cavity, followed by needle replacement with a 10 μl Hamilton syringe microinjector containing a 2 μl suspension of LLC cells (2×10^5 cells) followed by a 2 μl gelatin sponge solution to enable closure of the injection site. All mice were housed and monitored in accordance with AAALAC standards and Duke IACUC guidelines that pertained to each model.\nReflexive-based sensory testing in mice: All behavioral testing in mice was performed in a specialized humidity- and light-controlled mouse behavior facility maintained at 21-24° C., with testing conducted between the hours of 8:00-16:00. Mice were habituated to the testing environment for at least 2 days prior to baseline testing. All tests were performed by an experimenter who was blinded to experimental conditions, including genotypes and drug treatment. For multi-day experiments using STING agonists, mice were tested in the same room at approximately the same time each day. To measure mechanical sensitivity, mice were confined to individual chambers with non-transparent borders on an elevated mesh rack, preventing mice from visualizing or interacting with one another during the testing period. […] We determined the 50% paw withdrawal threshold using the up-down method. […]"}},
  "data": [
    {"compound": "Nc1ncnc2c1ncn2[C@@H]1O[C@@H]2COP(=O)([S-])O[C@@H]3[C@H](O)[C@@H](COP([O-])(=S)O[C@H]2[C@H]1O)O[C@H]3n1cnc2c(N)ncnc21.[Na+].[Na+]", "note": "(stereo partly drawn) [ADU-S100, (2′-5′)-[P(R)]-5′-O-[(R)-hydroxymercaptophosphinyl]-P-thioadenylyl-adenosine cyclic dinucleotide]", "values": [
      {"measurement": "serum IFN-β levels", "setting": "IFN-β", "value": "dramatically upregulated"},
      {"measurement": "IFN-β in bone marrow (BM) lysate", "setting": "IFN-β", "value": "sharply increased"},
      {"measurement": "conditioned place preference (ongoing pain)", "setting": "mice with CIPN or BCP", "value": "induced CPP in both models"},
      {"measurement": "conditioned place preference, single pairing", "setting": "mice with CIPN or BCP", "value": "induced comparable CPP as clonidine"},
      {"measurement": "deaths (toxicity with systemic administration)", "setting": "mice with CIPN", "value": "No mice died"},
      {"measurement": "cold allodynia", "setting": "[1]", "value": "suppressed cold allodynia"},
      {"measurement": "tumor burden", "setting": "[1]", "value": "tumor burden was unaffected"}
    ]},
    {"compound": "Cc1ccc2c(=O)c3cccc(CC(=O)O)c3oc2c1C", "note": "[DMXAA, 2-(5,6-dimethyl-9-oxo-9H-xanthen-4-yl)acetic acid]", "values": [
      {"measurement": "serum IFN-β levels", "setting": "IFN-β", "value": "dramatically upregulated"},
      {"measurement": "IFN-β in bone marrow (BM) lysate", "setting": "IFN-β", "value": "sharply increased"},
      {"measurement": "conditioned place preference (ongoing pain)", "setting": "mice with CIPN or BCP", "value": "induced CPP in both models"},
      {"measurement": "conditioned place preference, single pairing", "setting": "mice with CIPN or BCP", "value": "induced comparable CPP as clonidine"},
      {"measurement": "deaths (toxicity with systemic administration)", "setting": "mice with CIPN", "value": 3, "unit": "mice"},
      {"measurement": "cold allodynia", "setting": "[1]", "value": "suppressed cold allodynia"},
      {"measurement": "tumor burden", "setting": "[1]", "value": "tumor burden was unaffected"}
    ]}
  ]
}
